The text below walks through data of US12377080B2, “Allosteric EGFR inhibitors and methods of use thereof” (Dana-Farber Cancer Institute, Inc., priority 2019, dated 2025).

The subject of test [1] is NSCLC that have developed resistance to gefitinib or erlotinib. As to conditions: patients with NSCLC resistant to gefitinib or erlotinib; cited from earlier work.
Test [2] relates to EGFR L858R/T790M mutant Ba/F3 Cells. The experiment in a line: Ba/F3 cell proliferation (Cell Titer Glo) in combination with cetuximab. The test is classed as cell-based, murine. Conditions: 72 hours. The source says: The EGFR mutant L858R, Del E746_A750, L858R/T790M, Del E746_A750/T790M, L858R/T790MIC797S, and DellT790MIC797S Ba/F3 cells have been previously described (Zhou, W., et al, Nature 462, 2009, 1070-1074). All cell lines were maintained in RPM I 1640 (Cellgro; Mediatech Inc., Herndon, CA) supplemented with 10% FBS, 100 units/mL penicillin, 100 units/mL streptomycin. The EGFR 1941 R mutation was introduced via site directed mutagenesis using the Quick Change Site-Directed Mutagenesis kit (Stratagene; La Jolla, CA) according to the manufacturer's instructions. All constructs were confirmed by DNA sequencing. The constructs were shuttled into the retroviral vector JP1540 using the Cre-recombination system (Agilent Technologies, Santa Clara, CA). Ba/F3 cells were then infected with retrovirus per standard protocols, as described previously (Zhou, et al, Nature 2009). Stable clones were obtained by selection in puromycin (2 μg/ml),
Growth and inhibition of growth was assessed by the Cell Titer Glo assay (Promega, Madison, WI) and was performed according to the manufacturer's instructions. The Cell Titer Glo assay is a luminescence-based method used to determine the number of viable cells based on quantitation of the ATP present, which is directly proportional to the amount of metabolically active cells present. Ba/F3 cells of different EGFR genotypes were exposed to compounds as a single agent or in combination with […] for 72 hours and the number of cells used per experiment was determined empirically as has been previously established (Zhou, et al., Nature 2009). All experimental points were set up in triplicates in 384-well plates and all experiments were repeated at least three times. […] The curves were fitted using a non-linear regression model with a sigmoidal dose response.
In general terms: In ATP-based viability assays light output follows the ATP content of the culture.

The target of the next test is EGFR L858R (Homo sapiens (Human), UniProt P00533, L858R). The test can be described thus: HTRF-based EGFR biochemical assay (L858R). As to conditions: 100 μM ATP. As to the method: (§1) EGFR biochemical activity measurements were carried out using the homogeneous time-resolved fluorescence (HTRF) assay (Cisbio). Inhibitors and DMSO normalizations were first dispensed to empty black low-volume 384-well plates (Corning) with D300 digital liquid dispenser (HP). All reactions were carried out at room temperature and solutions were added to plates with a Multidrop Combi Reagent Dispenser (ThermoFisher). The reaction mixture (10 μL final volume) contained 1 μM tyrosine kinase peptide-biotin substrate and mutant EGFR in a reaction buffer (50 mM HEPES pH 7,0, 5 mM MgCl2,1 mM MnCl2, 0.01% BSA, 2 mM TCEP, 0.1 mM NaVO4). Enzyme concentrations were adjusted to accommodate varying kinase activities (L858R 0.1 nM, L858R!T790M 0,02 nM). Enzyme reaction solution (2× concentrations, 5 μL) was added to 384-well plates containing compounds and incubated for 30 mins. Enzyme reactions were initiated with the addition of […] of ATP to a final concentration of 100 μM and reacted for 20 mins. Reactions were quenched with the addition of 10 μL of phospho-tyrosine antibody-Europium(III) cryptate (1-to-180 volume ratio) and Streptavidin-XL665 (46.7 nM) in EDTA-containing detection buffer, then incubated at room temperature for 1 hour, and read with a PHERAstar plate reader (excitation =337 nm, emission =620 nm and 665 nm).
EGFR L858R, sequence (P00533 25-1210 L858R): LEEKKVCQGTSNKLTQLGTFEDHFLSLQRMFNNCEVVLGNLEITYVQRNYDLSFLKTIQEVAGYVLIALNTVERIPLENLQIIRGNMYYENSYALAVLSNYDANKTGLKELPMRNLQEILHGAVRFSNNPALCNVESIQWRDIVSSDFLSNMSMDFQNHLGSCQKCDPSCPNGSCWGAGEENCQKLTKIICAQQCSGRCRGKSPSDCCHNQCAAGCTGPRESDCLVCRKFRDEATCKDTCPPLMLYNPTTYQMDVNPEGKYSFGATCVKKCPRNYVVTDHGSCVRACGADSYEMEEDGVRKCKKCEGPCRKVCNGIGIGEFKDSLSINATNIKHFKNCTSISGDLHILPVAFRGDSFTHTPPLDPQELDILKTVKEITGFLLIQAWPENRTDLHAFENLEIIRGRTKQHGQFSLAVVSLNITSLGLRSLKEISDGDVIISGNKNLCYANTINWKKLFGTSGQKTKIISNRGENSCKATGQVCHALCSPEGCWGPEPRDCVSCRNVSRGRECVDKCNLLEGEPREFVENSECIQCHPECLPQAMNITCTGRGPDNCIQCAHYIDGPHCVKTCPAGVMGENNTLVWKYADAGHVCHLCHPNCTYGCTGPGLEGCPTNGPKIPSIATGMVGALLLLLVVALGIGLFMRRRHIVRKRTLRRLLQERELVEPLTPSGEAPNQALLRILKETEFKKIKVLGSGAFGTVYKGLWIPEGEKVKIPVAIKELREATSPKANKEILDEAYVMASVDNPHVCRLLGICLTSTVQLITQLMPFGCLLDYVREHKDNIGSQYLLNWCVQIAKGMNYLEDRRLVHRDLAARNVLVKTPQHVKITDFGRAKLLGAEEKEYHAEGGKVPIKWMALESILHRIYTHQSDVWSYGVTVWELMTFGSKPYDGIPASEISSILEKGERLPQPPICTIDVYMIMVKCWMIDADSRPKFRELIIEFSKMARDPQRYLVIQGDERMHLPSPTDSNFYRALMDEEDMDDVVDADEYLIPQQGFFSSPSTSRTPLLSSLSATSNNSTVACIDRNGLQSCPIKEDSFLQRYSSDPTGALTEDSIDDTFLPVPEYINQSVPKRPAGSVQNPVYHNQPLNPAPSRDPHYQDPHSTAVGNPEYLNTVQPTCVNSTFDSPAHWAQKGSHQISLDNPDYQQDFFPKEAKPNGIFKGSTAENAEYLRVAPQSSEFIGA

The target of another test is EGFR L858R/T790M (Homo sapiens (Human), UniProt P00533, L858R/T790M). The experiment in a line: HTRF-based EGFR biochemical assay (L858R/T790M). Conditions: 100 μM ATP. The protocol: as §1
EGFR L858R/T790M, sequence (P00533 25-1210 T790M/L858R): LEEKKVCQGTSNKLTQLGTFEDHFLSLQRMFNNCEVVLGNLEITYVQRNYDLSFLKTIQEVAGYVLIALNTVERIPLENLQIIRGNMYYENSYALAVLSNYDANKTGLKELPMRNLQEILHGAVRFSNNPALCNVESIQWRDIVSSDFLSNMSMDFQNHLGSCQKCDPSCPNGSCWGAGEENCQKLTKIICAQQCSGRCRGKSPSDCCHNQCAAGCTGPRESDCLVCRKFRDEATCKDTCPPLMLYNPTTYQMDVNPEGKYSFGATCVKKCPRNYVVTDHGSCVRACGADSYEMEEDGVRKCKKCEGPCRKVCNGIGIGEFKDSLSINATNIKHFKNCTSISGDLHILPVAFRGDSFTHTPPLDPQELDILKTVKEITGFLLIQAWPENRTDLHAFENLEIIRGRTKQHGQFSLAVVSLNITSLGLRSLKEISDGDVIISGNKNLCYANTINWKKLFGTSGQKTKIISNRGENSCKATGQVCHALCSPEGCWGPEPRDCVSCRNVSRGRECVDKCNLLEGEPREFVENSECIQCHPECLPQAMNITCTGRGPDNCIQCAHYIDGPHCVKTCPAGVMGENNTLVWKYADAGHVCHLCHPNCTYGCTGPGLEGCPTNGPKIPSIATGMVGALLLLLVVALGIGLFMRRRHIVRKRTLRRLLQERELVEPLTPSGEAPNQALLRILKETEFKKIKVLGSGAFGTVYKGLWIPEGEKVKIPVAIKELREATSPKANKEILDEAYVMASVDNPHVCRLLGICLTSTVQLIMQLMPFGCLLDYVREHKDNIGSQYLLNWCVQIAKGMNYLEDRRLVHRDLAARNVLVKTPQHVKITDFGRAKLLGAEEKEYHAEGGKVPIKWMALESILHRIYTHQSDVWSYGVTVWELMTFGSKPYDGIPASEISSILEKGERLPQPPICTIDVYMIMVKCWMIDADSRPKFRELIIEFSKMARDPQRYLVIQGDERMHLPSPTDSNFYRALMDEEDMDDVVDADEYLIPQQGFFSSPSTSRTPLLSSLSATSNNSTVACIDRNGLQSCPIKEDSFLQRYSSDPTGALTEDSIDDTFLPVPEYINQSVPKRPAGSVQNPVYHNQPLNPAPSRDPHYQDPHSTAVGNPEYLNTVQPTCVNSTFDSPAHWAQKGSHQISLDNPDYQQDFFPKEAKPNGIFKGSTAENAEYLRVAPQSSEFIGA
(In general: TR-FRET usually uses a lanthanide donor and a delayed reading to cut background.)

pIC50: −log10 of the molar value.

The pIC50 is the IC50 on a negative log10 scale, so that one unit is a factor of ten.

Consider `CN(C)C/C=C/C(=O)Nc1cc2c(Nc3ccc(F)c(Cl)c3)ncnc2cc1O[C@H]1CCOC1` [afatinib], for which the “RR (response rate)” value in test [1] is “less than 10%”.
Consider `CN1CCN(c2ccc(-c3cnc4c(c3)C(=O)N(C(C(=O)Nc3nccs3)c3cccc(F)c3)C4)cc2)CC1` (stereo not shown) [Compound 10, 2-(3-fluorophenyl)-2-(3-(4-(4-methylpiperazin-1-yl)phenyl)-5-oxo-5,7-dihydro-6H-pyrrolo-[3,4-b]pyridin-6-yl)-N-(thiazol-2-yl)acetamide], for which the negative logarithm of the IC50 (pIC50) is 7.00 in test [2], 7.34 against EGFR L858R and 8.40 on EGFR L858R/T790M.
In the same order, the values of `CN1CCC(c2ccc(-c3ccc4c(n3)C(=O)N(C(C(=O)Nc3ccccn3)c3cc(F)ccc3O)C4)cc2)CC1` (stereo not shown) [Compound 21, 2-(5-fluoro-2-hydroxyphenyl)-2-(2-(4-(1-methylpiperidin-4-yl)phenyl)-7-oxo-5,7-dihydro-6H-pyrrolo[3,4-b]pyridin-6-yl)-N-(pyridin-2-yl)acetamide] are 8.00, 8.40 and 9.40.
The matching figures for `CN1CCN(c2ccc(-c3ccc4c(n3)C(=O)N(C(C(=O)Nc3nccs3)c3cccc(F)c3)C4)cn2)CC1` (stereo not shown) [Compound 15, 2-(3-fluorophenyl)-2-(2-(6-(4-methylpiperazin-1-yl)pyridin-3-yl)-7-oxo-5,7-dihydro-6H-pyrrolo[3,4-b]pyridin-6-yl)-N-(thiazol-2-yl)acetamide]: 6.48, 7.08 and 8.22.
